Test results: publication PMC7156458, “Synthetic biology based construction of biological activity-related library of fungal decalin-containing diterpenoid pyrones” (Nature Communications, 2020)

Biological target: Aβ42 (Homo sapiens, UniProt P05067)
Test: Th-T (thioflavin-T) assay of Aβ42 aggregation
Assay type: biochemical
Settings: for Th-T assay plate reading, mean of three wells (Supplementary Fig. 47): source data, Ab alone and No Ab as controls

Chain of Aβ42 (P05067 672-713): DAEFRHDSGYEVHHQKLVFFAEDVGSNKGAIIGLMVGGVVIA

In the case of `C=C1CC[C@H]2[C@]3(C)C[C@H](C=C(C)C)O[C@H]3CC[C@]2(C)[C@@H]1Cc1c(O)c(C)c(C)oc1=O` [Compound 6, subglutinol B], the “Th-T fluorescence, mean of three wells” value (Aβ42 aggregation time course, reading M117) was 3.0425, the “Th-T fluorescence, mean of three wells” value (Aβ42 aggregation time course, reading M118) was 3.0715 and the “Th-T fluorescence, mean of three wells” value (Aβ42 aggregation time course, reading M119) was 3.036. For the same molecule, the “Th-T fluorescence, mean of three wells” value (Aβ42 aggregation time course, reading M120) was 3.042, the “Th-T fluorescence, mean of three wells” value (Aβ42 aggregation time course, reading M121) was 3.063 and the “Th-T fluorescence, mean of three wells” value (Aβ42 aggregation time course, reading M122) was 3.055. For the same molecule, the “Th-T fluorescence, mean of three wells” value (Aβ42 aggregation time course, reading M123) was 3.062, the “Th-T fluorescence, mean of three wells” value (Aβ42 aggregation time course, reading M124) was 3.061 and the “Th-T fluorescence, mean of three wells” value (Aβ42 aggregation time course, reading M125) was 3.081. The “Th-T fluorescence, mean of three wells” value (Aβ42 aggregation time course, reading M126) was 3.018, the “Th-T fluorescence, mean of three wells” value (Aβ42 aggregation time course, reading M127) was 3.038 and the “Th-T fluorescence, mean of three wells” value (Aβ42 aggregation time course, reading M128) was 3.027. For the same molecule, the “Th-T fluorescence, mean of three wells” value (Aβ42 aggregation time course, reading M129) was 3.02, the “Th-T fluorescence, mean of three wells” value (Aβ42 aggregation time course, reading M130) was 3.02 and the “Th-T fluorescence, mean of three wells” value (Aβ42 aggregation time course, reading M131) was 3.032. The “Th-T fluorescence, mean of three wells” value (Aβ42 aggregation time course, reading M132) was 3.01, the “Th-T fluorescence, mean of three wells” value (Aβ42 aggregation time course, reading M133) was 3.061 and the “Th-T fluorescence, mean of three wells” value (Aβ42 aggregation time course, reading M134) was 3.045. The “Th-T fluorescence, mean of three wells” value (Aβ42 aggregation time course, reading M135) was 3.053, the “Th-T fluorescence, mean of three wells” value (Aβ42 aggregation time course, reading M136) was 3.034 and the “Th-T fluorescence, mean of three wells” value (Supplementary Fig. 47, reading M137) was 3.021. For the same molecule, the “Th-T fluorescence, mean of three wells” value (Supplementary Fig. 47, reading M138) was 3.036, the “Th-T fluorescence, mean of three wells” value (Supplementary Fig. 47, reading M139) was 3.036 and the “Th-T fluorescence, mean of three wells” value (Supplementary Fig. 47, reading M140) was 3.0121. The “Th-T fluorescence, mean of three wells” value (Supplementary Fig. 47, reading M141) was 3.01, the “Th-T fluorescence, mean of three wells” value (Supplementary Fig. 47, reading M142) was 2.999 and the “Th-T fluorescence, mean of three wells” value (Supplementary Fig. 47, reading M143) was 3.017. The “Th-T fluorescence, mean of three wells” value (Supplementary Fig. 47, reading M144) was 3.0125, the “Th-T fluorescence, mean of three wells” value (Supplementary Fig. 47, reading M145) was 3.0288 and the “Th-T fluorescence, mean of three wells” value (Supplementary Fig. 47 source data, measurement M37 of time course) was 3.017. For the same molecule, the “Th-T fluorescence, mean of three wells” value (Supplementary Fig. 47 source data, measurement M38 of time course) was 3.04, the “Th-T fluorescence, mean of three wells” value (Supplementary Fig. 47 source data, measurement M39 of time course) was 3.05 and the “Th-T fluorescence, mean of three wells” value (Supplementary Fig. 47 source data, measurement M40 of time course) was 3.045. The “Th-T fluorescence, mean of three wells” value (Supplementary Fig. 47 source data, measurement M41 of time course) was 3.085, the “Th-T fluorescence, mean of three wells” value (Supplementary Fig. 47 source data, measurement M42 of time course) was 3.072 and the “Th-T fluorescence, mean of three wells” value (Supplementary Fig. 47 source data, measurement M43 of time course) was 3.079. For the same molecule, the “Th-T fluorescence, mean of three wells” value (Supplementary Fig. 47 source data, measurement M44 of time course) was 3.068, the “Th-T fluorescence, mean of three wells” value (Supplementary Fig. 47 source data, measurement M45 of time course) was 3.111 and the “Th-T fluorescence, mean of three wells” value (Supplementary Fig. 47 source data, measurement M46 of time course) was 3.079. The “Th-T fluorescence, mean of three wells” value (Supplementary Fig. 47 source data, measurement M47 of time course) was 3.097, the “Th-T fluorescence, mean of three wells” value (Supplementary Fig. 47 source data, measurement M48 of time course) was 3.117 and the “Th-T fluorescence, mean of three wells” value (Supplementary Fig. 47 source data, measurement M49 of time course) was 3.11. The “Th-T fluorescence, mean of three wells” value (Supplementary Fig. 47 source data, measurement M50 of time course) was 3.114, the “Th-T fluorescence, mean of three wells” value (Supplementary Fig. 47 source data, measurement M51 of time course) was 3.119 and the “Th-T fluorescence, mean of three wells” value (Supplementary Fig. 47 source data, measurement M52 of time course) was 3.113. The “Th-T fluorescence, mean of three wells” value (Supplementary Fig. 47 source data, measurement M53 of time course) was 3.12, the “Th-T fluorescence, mean of three wells” value (Supplementary Fig. 47 source data, measurement M54 of time course) was 3.1191 and the “Th-T fluorescence, mean of three wells” value (Supplementary Fig. 47 source data, measurement M55 of time course) was 3.1238. For the same molecule, the “Th-T fluorescence, mean of three wells” value (Supplementary Fig. 47 source data, measurement M56 of time course) was 3.106, the “Th-T assay plate reading, mean of three wells (Supplementary Fig. 47)” value (from here on “Th-T assay plate reading, mean”) (measurement M1) was 0.3106 and the “Th-T assay plate reading, mean” value (measurement M2) was 0.3077. For the same molecule, the “Th-T assay plate reading, mean” value (measurement M3) was 0.3313, the “Th-T assay plate reading, mean” value (measurement M4) was 0.3664 and the “Th-T assay plate reading, mean” value (measurement M5) was 0.4514. The “Th-T assay plate reading, mean” value (measurement M6) was 0.4846, the “Th-T assay plate reading, mean” value (measurement M7) was 0.512 and the “Th-T assay plate reading, mean” value (measurement M8) was 0.5981. For the same molecule, the “Th-T assay plate reading, mean” value (measurement M9) was 0.6456, the “Th-T assay plate reading, mean” value (measurement M10) was 0.6881 and the “Th-T assay plate reading, mean” value (measurement M11) was 0.7275. The “Th-T assay plate reading, mean” value (measurement M12) was 0.7567, the “Th-T assay plate reading, mean” value (measurement M13) was 0.7872 and the “Th-T assay plate reading, mean” value (measurement M14) was 0.8218. The “Th-T assay plate reading, mean” value (measurement M15) was 0.8797, the “Th-T assay plate reading, mean” value (measurement M16) was 0.9731 and the “Th-T fluorescence, mean of three wells” value (reading M17, Supplementary Fig. 47 source data) was 1.192. For the same molecule, the “Th-T fluorescence, mean of three wells” value (reading M18, Supplementary Fig. 47 source data) was 1.512, the “Th-T fluorescence, mean of three wells” value (reading M19, Supplementary Fig. 47 source data) was 1.858 and the “Th-T fluorescence, mean of three wells” value (reading M20, Supplementary Fig. 47 source data) was 2.193. For the same molecule, the “Th-T fluorescence, mean of three wells” value (reading M21, Supplementary Fig. 47 source data) was 2.479, the “Th-T fluorescence, mean of three wells” value (reading M22, Supplementary Fig. 47 source data) was 2.615 and the “Th-T fluorescence, mean of three wells” value (reading M23, Supplementary Fig. 47 source data) was 2.7089. The “Th-T fluorescence, mean of three wells” value (reading M24, Supplementary Fig. 47 source data) was 2.736, the “Th-T fluorescence, mean of three wells” value (reading M25, Supplementary Fig. 47 source data) was 2.775 and the “Th-T fluorescence, mean of three wells” value (reading M26, Supplementary Fig. 47 source data) was 2.797. For the same molecule, the “Th-T fluorescence, mean of three wells” value (reading M27, Supplementary Fig. 47 source data) was 2.826, the “Th-T fluorescence, mean of three wells” value (reading M28, Supplementary Fig. 47 source data) was 2.834 and the “Th-T fluorescence, mean of three wells” value (reading M29, Supplementary Fig. 47 source data) was 2.861. For the same molecule, the “Th-T fluorescence, mean of three wells” value (reading M30, Supplementary Fig. 47 source data) was 2.901, the “Th-T fluorescence, mean of three wells” value (reading M31, Supplementary Fig. 47 source data) was 2.9009 and the “Th-T fluorescence, mean of three wells” value (reading M32, Supplementary Fig. 47 source data) was 2.941. The “Th-T fluorescence, mean of three wells” value (reading M33, Supplementary Fig. 47 source data) was 2.954, the “Th-T fluorescence, mean of three wells” value (reading M34, Supplementary Fig. 47 source data) was 2.9825 and the “Th-T fluorescence, mean of three wells” value (reading M35, Supplementary Fig. 47 source data) was 2.976. The “Th-T fluorescence, mean of three wells” value (reading M36, Supplementary Fig. 47 source data) was 3.001, the “Th-T fluorescence, mean of three wells” value (time course, reading M57) was 3.126 and the “Th-T fluorescence, mean of three wells” value (time course, reading M58) was 3.154. For the same molecule, the “Th-T fluorescence, mean of three wells” value (time course, reading M59) was 3.098, the “Th-T fluorescence, mean of three wells” value (time course, reading M60) was 3.135 and the “Th-T fluorescence, mean of three wells” value (time course, reading M61) was 3.131. For the same molecule, the “Th-T fluorescence, mean of three wells” value (time course, reading M62) was 3.132, the “Th-T fluorescence, mean of three wells” value (time course, reading M63) was 3.122 and the “Th-T fluorescence, mean of three wells” value (time course, reading M64) was 3.115. The “Th-T fluorescence, mean of three wells” value (time course, reading M65) was 3.114, the “Th-T fluorescence, mean of three wells” value (time course, reading M66) was 3.129 and the “Th-T fluorescence, mean of three wells” value (time course, reading M67) was 3.159. The “Th-T fluorescence, mean of three wells” value (time-course reading M97, Supplementary Fig. 47 source data) was 3.103, the “Th-T fluorescence, mean of three wells” value (time-course reading M98, Supplementary Fig. 47 source data) was 3.123 and the “Th-T fluorescence, mean of three wells” value (time-course reading M99, Supplementary Fig. 47 source data) was 3.102. The “Th-T fluorescence, mean of three wells” value (time-course reading M100, Supplementary Fig. 47 source data) was 3.074, the “Th-T fluorescence, mean of three wells” value (time-course reading M101, Supplementary Fig. 47 source data) was 3.118 and the “Th-T fluorescence, mean of three wells” value (time-course reading M102, Supplementary Fig. 47 source data) was 3.1. The “Th-T fluorescence, mean of three wells” value (time-course reading M103, Supplementary Fig. 47 source data) was 3.088, the “Th-T fluorescence, mean of three wells” value (time-course reading M104, Supplementary Fig. 47 source data) was 3.101 and the “Th-T fluorescence, mean of three wells” value (time-course reading M105, Supplementary Fig. 47 source data) was 3.114. For the same molecule, the “Th-T fluorescence, mean of three wells” value (time-course reading M106, Supplementary Fig. 47 source data) was 3.076, the “Th-T fluorescence, mean of three wells” value (time-course reading M107, Supplementary Fig. 47 source data) was 3.094 and the “Th-T fluorescence, mean of three wells” value (time-course reading M108, Supplementary Fig. 47 source data) was 3.063. For the same molecule, the “Th-T fluorescence, mean of three wells” value (time-course reading M109, Supplementary Fig. 47 source data) was 3.057, the “Th-T fluorescence, mean of three wells” value (time-course reading M110, Supplementary Fig. 47 source data) was 3.049 and the “Th-T fluorescence, mean of three wells” value (time-course reading M111, Supplementary Fig. 47 source data) was 3.101. The “Th-T fluorescence, mean of three wells” value (time-course reading M112, Supplementary Fig. 47 source data) was 3.097, the “Th-T fluorescence, mean of three wells” value (time-course reading M113, Supplementary Fig. 47 source data) was 3.03 and the “Th-T fluorescence, mean of three wells” value (time-course reading M114, Supplementary Fig. 47 source data) was 3.07. The “Th-T fluorescence, mean of three wells” value (time-course reading M115, Supplementary Fig. 47 source data) was 3.098 and the “Th-T fluorescence, mean of three wells” value (time-course reading M116, Supplementary Fig. 47 source data) was 3.06.
